Assay results taken from patent US20100216886A1, “POLYMORPHS OF N2-(1,1'-BIPHENYL-4-YLCARBONYL)-N1-[2-(4-FLUOROPHENYL)-1,1-DIMETHYLETHYL]-L-ALPHA-GLUTAMINE” (Wyeth, priority 2006, published 2010).
Values after ≈ are worked out from the molar mass of the structure shown.

Tests used:
Format in all cases: physicochemical
[1] = Equilibrium moisture study in desiccators with saturated salt solutions (KF, XRD); details: for Moisture (%) 1-day / Moisture (%) 3-day / Moisture (%) 7-day / Moisture (%) 20-day / XRD Polymorph / Moisture (%) 4-day: room temperature; for XRD Polymorph: end of 20 days
Procedure: As a result, an equilibrium moisture study using desiccators containing saturated salt solutions for humidity control was performed. […] Samples were periodically assayed by KF titration to give the kinetic profiles. XRD analysis was performed at the end of 20 days. The data is summarized in Table 8 with kinetic and equilibrium data plotted in FIGS. 18 and 19.

Solid state stability = test: Solid state stability
Procedure: Sample F containing polymorph Form B was further investigated at 40° C./75% RH using open and closed vials for 3 months. […] Therefore, the monohydrate needs to be stored in hermetically sealed containers in order to prevent conversion to the sesquihydrate.

[2] = Dynamic Vapor Sorption (DVS) analysis; details: room temperature, 6-hour equilibration period
Description: Sample F was subject to Dynamic Vapor Sorption (DVS) analysis at room temperature. The sample was first analyzed by Karl Fischer (KF) titration containing initial moisture content of 3.7% for the monohydrate form. RH cycling started at 50% relative humidity (RH) to 100% RH and down to 0% RH and then back up to 100% RH. A 3-hour/step equilibration period was found insufficient, so the run was repeated with a 6-hour period, which was still not sufficient.
As a result, an equilibrium moisture study using desiccators containing saturated salt solutions for humidity control was performed. Sample F was incubated at 0%, 15%, 31%, 66%, 87%, and 100% RH in room temperature for up to 20 days. Samples were periodically assayed by KF titration to give the kinetic profiles. XRD analysis was performed at the end of 20 days. The data is summarized in Table 8 with kinetic and equilibrium data plotted in FIGS. 18 and 19.

[3] = Slurry in water at 50° C. (polymorphic transformation); details: slurry in water at 50° C. for 12-24 hr
Procedure: Powder XRD patterns comparing the starting material to polymorph pseudo Form A are shown in FIG. 34, and DSC thermograms of both batches at 50° C. are shown in FIG. 35.

[4] = Polymorphic conversion study in aqueous media (2% Tween 80, water)
Description: Polymorphic conversion of Form A to Form B was not observed with Sample D in 2% Tween 80 or water.
Polymorph pseudo Form A was obtained from a scaled up preparation of polymorph Form A (Sample E).
The polymorphic conversion appeared to be slower in water than in the 2% Tween suspension, probably due to the lower solubility in water.
DSC data also supported this observation (FIG. 11).

[5] = Solubility in water and 2% Tw80 of samples used in toxicological formulation assessments; details: 2% Tw80
Description: Table 6 summarizes various solid-state properties of samples used in toxicological formulation assessments.

CC(C)(Cc1ccc(F)cc1)NC(=O)[C@H](CCC(=O)O)NC(=O)c1ccc(-c2ccccc2)cc1 [Form B, N^2-(1,1′-biphenyl-4-ylcarbonyl)-N^1-[2-(4-fluorophenyl)-1,1-dimethylethyl]-L-α-glutamine]
Moisture (%) 1-day ([1]; 0% RH): 3.48% | Moisture (%) 3-day ([1]; 0% RH): 3.55% | Moisture (%) 7-day ([1]; 0% RH): 3.57% | Moisture (%) 20-day ([1]; 0% RH): 2.78% | XRD Polymorph ([1]; 0% RH): Pattern B, Form B | Moisture (%) 1-day ([1]; 15% RH): 3.97% | Moisture (%) 4-day ([1]; 15% RH): 3.99% | Moisture (%) 7-day ([1]; 15% RH): 3.74% | Moisture (%) 20-day ([1]; 15% RH): 3.79% | XRD Polymorph ([1]; 15% RH): Pattern B, Form B | Moisture (%) 1-day ([1]; 31% RH): 3.61% | Moisture (%) 4-day ([1]; 31% RH): 5.01% | Moisture (%) 7-day ([1]; 31% RH): 3.93% | Moisture (%) 20-day ([1]; 31% RH): 3.79% | XRD Polymorph ([1]; 31% RH): Pattern B, Form B | Moisture (%) 1-day ([1]; 47% RH): 3.81% | Moisture (%) 3-day ([1]; 47% RH): 3.73% | Moisture (%) 7-day ([1]; 47% RH): 4.00% | Moisture (%) 20-day ([1]; 47% RH): 4.19% | XRD Polymorph ([1]; 47% RH): Pattern B, Form B | Moisture (%) 1-day ([1]; 66% RH): 5.12% | Moisture (%) 4-day ([1]; 66% RH): 5.28% | Moisture (%) 7-day ([1]; 66% RH): 5.34% | Moisture (%) 20-day ([1]; 66% RH): 5.1% | XRD Polymorph ([1]; 66% RH): Pattern C, Form C | Moisture (%) 1-day ([1]; 84% RH): 5.55% | Moisture (%) 3-day ([1]; 84% RH): 5.43% | Moisture (%) 7-day ([1]; 84% RH): 5.55% | Moisture (%) 20-day ([1]; 84% RH): 5.71% | XRD Polymorph ([1]; 84% RH): Pattern C, Form C | Moisture (%) 1-day ([1]; 100% RH): 5.55% | Moisture (%) 4-day ([1]; 100% RH): 8.08% | Moisture (%) 7-day ([1]; 100% RH): 6.14% | Moisture (%) 20-day ([1]; 100% RH): 6.22% | XRD Polymorph ([1]; 100% RH): Pattern C, Form C | RH range at which the form is present by XRD ([1]; Sample F incubated at room temperature, 20 days, listed as monohydrate): 0-47 % RH | Moisture (%) T = 0 ([1]; initial, KF titration): 3.82% | HPLC Impurity (%) (Solid state stability; 40 C./75% RH Closed, 4 wk): 0.34% | KF (%) (Solid state stability; 40 C./75% RH Closed, 4 wk): 5.35% | XRD Polymorph (Solid state stability; 40 C./75% RH Closed, 4 wk): Form C Pattern C | HPLC Impurity (%) (Solid state stability; 40 C./75% RH Closed, 8 wk): 0.41% | KF (%) (Solid state stability; 40 C./75% RH Closed, 8 wk): 5.79% | XRD Polymorph (Solid state stability; 40 C./75% RH Closed, 8 wk): Form C Pattern C | HPLC Impurity (%) (Solid state stability; 40 C./75% RH Open, 4 wk): 0.36% | KF (%) (Solid state stability; 40 C./75% RH Open, 4 wk): 5.34% | XRD Polymorph (Solid state stability; 40 C./75% RH Open, 4 wk): Form C Pattern C | HPLC Impurity (%) (Solid state stability; 40 C./75% RH Open, 8 wk): 0.49% | KF (%) (Solid state stability; 40 C./75% RH Open, 8 wk): 5.53% | XRD Polymorph (Solid state stability; 40 C./75% RH Open, 8 wk): Form C Pattern C | Duration of sufficient heat stability (Solid state stability; 40° C./75% RH): at least 3 months | HPLC Impurity (%) (Solid state stability; Initial, time 0): 0.30% | KF (%) (Solid state stability; Initial, time 0): 3.82% | XRD Polymorph (Solid state stability; Initial, time 0): Form B Pattern B | RH range in which the form is stable (DVS) [2]: 0-50 % RH

CC(C)(Cc1ccc(F)cc1)NC(=O)[C@H](CCC(=O)O)NC(=O)c1ccc(-c2ccccc2)cc1 [Sample E, N^2-(1,1′-biphenyl-4-ylcarbonyl)-N^1-[2-(4-fluorophenyl)-1,1-dimethylethyl]-L-α-glutamine]
Change of powder XRD pattern or melting point / polymorphic transformation [3]: transformed to a lower melting point polymorph form | Polymorphic conversion / Polymorph Form after stirring ([4]; suspension 100 mg/mL in 2% Tween 80, ambient conditions, about 0.5 hr): transformation of pseudo Form A to Form B | Polymorphic conversion / Polymorph Form after stirring ([4]; suspension 100 mg/mL in water, overnight (~18 hr), ambient conditions): transformation of pseudo Form A to Form B | Solubility, 2% Tw80 [5]: 330 µg/mL (≈ 692 µM) | pH of 2% Tw80 solubility sample [5]: 5.6
